Measured values: patent US11766441B2, “Oral liquid compositions including chlorpromazine” (GENUS LIFESCIENCES INC., priority 2020, dated 2023)

Legend:
[1] = pH range of 1 to 12 at ambient temperature; cited from earlier work
[2] = Drug-excipient compatibility: HPLC assay and impurities of 20 mg/ml API/excipient solutions in purified water after storage; format: physicochemical
Method: Common excipients functioning as a solvent, a sweetener, an antioxidant, a chelating agent, a buffer system component, and a preservative were evaluated in the following example for excipient and drug substance compatibility. Compatibility was assessed through high performance liquid chromatography (HPLC) analysis of solutions containing the mixtures of the drug substance and the individual evaluated excipient in purified water. A relatively low concentration (20 mg/ml) of active pharmaceutical ingredient was selected to enhance potential oxidative or hydrolytic degradation of the API in the presence of the excipients. The excipients were used in slight excess to enhance potential interactions. The proportion of excipients was selected such that it was representative of their respective proportions to the API in the finished product.
Additionally, the pH of the solution was also monitored during development to ensure the physical stability of the product.

[3] = after storage for 1 Month at 25° C./60% RH
[4] = after storage for 1 Month at 40° C./75% RH
[5] = after storage for 15 days at 60° C.

## CN(C)CCCN1c2ccccc2Sc2ccc(Cl)cc21.Cl [Chlorpromazine hydrochloride, 2-chloro-10-[3-(dimethylamino)propyl] phenothiazine hydrochloride]
[1]
  solubility: greater than 1 g/mL
[2]; 1 M, 25° C./60% RH
  Assay of Chlorpromazine Hydrochloride (% Label Claim): 98.6 % Label Claim
[2]; 1 M, 40° C./75% RH
  Assay of Chlorpromazine Hydrochloride (% Label Claim): 98.7 % Label Claim
[2]; 15 Days, 60° C.
  Assay of Chlorpromazine Hydrochloride (% Label Claim): 100.9 % Label Claim
[2]; T0
  Assay of Chlorpromazine Hydrochloride (% Label Claim): 98.3 % Label Claim
[2]; [3]
  Impurities (%) A: 0.07%
  Impurities (%) C: 0.07%
  Impurities (%) D: 0.03%
  Impurities (%) Total: 0.24%
  Impurities (%) UD (RRT 0.55): 0.02%
  Impurities (%) UD (RRT 0.61): 0.02%
  Impurities (%) UD (RRT 1.42): 0.03%
[2]; [4]
  Impurities (%) A: 0.21%
  Impurities (%) C: 0.07%
  Impurities (%) D: 0.08%
  Impurities (%) Total: 0.44%
  Impurities (%) UD (RRT 0.55): 0.02%
  Impurities (%) UD (RRT 0.61): 0.02%
  Impurities (%) UD (RRT 1.42): 0.03%
[2]; [5]
  Impurities (%) A: 0.55%
  Impurities (%) C: 0.08%
  Impurities (%) D: 0.18%
  Impurities (%) E: 0.02%
  Impurities (%) Total: 1.04%
  Impurities (%) UD (RRT 0.49): 0.02%
  Impurities (%) UD (RRT 0.55): 0.14%
  Impurities (%) UD (RRT 0.61): 0.03%
  Impurities (%) UD (RRT 1.42): 0.03%
[2]; time zero
  Impurities (%) Total: 0.11%
  Impurities (%) UD (RRT 0.82): 0.08%
  Impurities (%) UD (RRT 1.31): 0.03%
